From patent publication US11752111B2, “Use of cannabidivarin in the treatment of autism spectrum disorder, associated disorders and schizophrenia” (GW Research Limited, priority 2016, dated 2023)

Tests used:
VPA-exposed rats [1] = assay: Short-term memory, novel object recognition test, prenatal VPA model; assay type: in vivo, rat
Experimental: (§1) Pregnant Sprague-Dawley rats (Charles River, Calco, Italy), received a single intraperitoneal injection of 500 mg/kg sodium valproate on the 12.5 day after conception, and control females were injected with physiological saline at the same time. Sodium valproate (Sigma Aldrich, Milan, IT) was dissolved in saline at a concentration of 250 mg/ml.
CBDV was dissolved in ethanol, cremophor and saline (1:1:18). Symptomatic treatment with CBDV at doses of 0.2, 2, 20, and 100 mg/kg/day i.p. was performed starting from PND 34 (early adolescence) till 56 (early adulthood), both in male and female offspring of dams injected with VPA 500 mg/kg (or vehicle) on day 12.5 after conception. […]
Short-term memory: The experimental apparatus used for the object recognition test was an open-field box (43×43×32 cm) made of Plexiglas, placed in a dimly illuminated room. The experiment was performed and analysed as previously described (Zamberletti et al, 2014). […]
Each animal was placed in the arena and allowed to explore two identical previously unseen objects for 5 minutes (familiarization phase). […] During the test phase the time spent exploring the familiar object (Ef) and the new object (En) was videotaped and recorded separately by two observers blind to the treatment groups and the discrimination index was calculated as follows: [(En−Ef)/(En+Ef)]×100.

VPA-exposed rats [2] = assay: Locomotor activity and repetitive behaviours (self-grooming), prenatal VPA model; assay type: in vivo, rat; settings: VPA offspring
Experimental: as §1
CBDV was dissolved in ethanol, cremophor and saline (1:1:18). Symptomatic treatment with CBDV at doses of 0.2, 2, 20, and 100 mg/kg/day i.p. was performed starting from PND 34 (early adolescence) till 56 (early adulthood), both in male and female offspring of dams injected with VPA 500 mg/kg (or vehicle) on day 12.5 after conception. At PND 56, a series of behavioural tests was performed in order to assess the effect of chronic CBDV on sociability, social novelty, short-term memory, locomotion and stereotyped/repetitive behaviours.
Locomotor activity and repetitive behaviours: Locomotor activity was recorded in an activity cage for 20 minutes with the aid of Anymaze program (Ugo Basile, Italy). In this period, repetitive behaviours (self-grooming and digging) were measured by an observer blind to the treatment group.

PCP-treated rats = assay: Novel object recognition test, sub-chronic PCP model of schizophrenia; assay type: in vivo, rat
Experimental: Female hooded-Lister rats were used for this experiment. Rats were housed in groups of 5 under standard laboratory conditions under a 12 hr light: dark cycle, lights on at 0700 hr. Testing was carried out in the light phase.
Rats were randomly assigned to two treatment groups and treated with vehicle, n=20 (distilled water, i.p.) or Phencyclidine hydrochloride (PCP), n=100 (2 mg/kg, i.p. twice daily for 7-days). PCP was dissolved in distilled water. This was followed by a 7-day wash out period before the rats were tested following acute treatment with CBDV, risperidone or vehicle.
Risperidone (0.1 mg/kg) was dissolved in a minimum volume of acetic acid, made up to volume with distilled water and pH adjusted to 6 with 0.1M NaOH and administered via the i.p. route in a volume of 1 ml/kg, 60 min prior to testing.
CBDV at 2, 10 or 20 mg/kg was dissolved in 2:1:17 (Ethanol:Cremofor:Saline 0.9%) and administered via the i.p. route in a volume of 5 ml/kg, 60 min prior to testing.
Rats were allowed to habituate to the empty test box and the behavioural test room environment for 1h on day 1. Prior to behavioural testing on day 2 rats are given a further 3 min habituation.
Following the 3 min habituation period, the rats are given two 3 min trials (T1 and T2) which are separated by a 1 min inter-trial interval in the home cage during which the objects are changed. Behaviour in all trials was recorded on video for subsequent blind scoring.
In this trial, the animals are allowed to explore two identical objects (A1 and A2) for 3 min.
In this trial, the animals explore a familiar object (A) from T1 and a novel object (B) for 3 min. The familiar object presented during T2 is a duplicate of the object presented in T1 in order to avoid any olfactory trails.
The object exploration is defined by animals licking, sniffing or touching the object with the forepaws whilst sniffing, but not leaning against, turning around, standing or sitting on the object. The exploration time (s) of each object (A, B, familiar and novel) in each trial are recorded using two stopwatches and the following factors are calculated:
Discrimination index (DI), which is calculated as shown below: […]

Ube3am-/p+ (AS) mice = assay: Rotarod test in Angelman syndrome model; assay type: in vivo, mouse; settings: CBDV 20 mg/kg i.p. chronic treatment (30 days); AS mice vs AS vehicle
Experimental: Heterozygous mice with maternal deficiency of Ube3A (Ube3am−/p+) and wild type (Ube3am+/p+) were purchased from The Jackson Laboratory (Jackson code: B6.129S7-Ube3a tm1Alb/J) and maintained in a C57BL/6 background.
Drugs were dissolved in 1:1:18 ethanol:cremophor:0.9% saline, for intraperitoneal (i.p.) administration. Drug treatment was performed daily for 35 days. CBDV was administered at 20 mg/kg.
Rotarod: The rotarod test assesses balance and motor coordination of mice. Mice have been measured for the time (in seconds) of equilibrium before falling on a rotary cylinder by a magnet that, activated from the fall of the mouse on the plate, allows to record the time of permanence on the cylinder. […] The animals were analysed by 2 separate tests at 1-h interval in the same day.

For `C=C(C)[C@@H]1CCC(C)=C[C@H]1c1c(O)cc(CCC)cc1O` [CBDV, Cannabidivarin], the “short-term memory deficit, discrimination index (FIG. 2C)” value (VPA-exposed rats [1]; 2, 20 and 100 mg/kg, male and female VPA rats) was “completely and significantly reversed”, the “recognition memory per se” value (VPA-exposed rats [1]; vehicle-treated (non VPA) rats) was “without affecting per se recognition memory” and the “repetitive behaviours (compulsive self-grooming) (FIG. 2A)” value (VPA-exposed rats [2]; 20 mg/kg in males) was “significantly normalize”. The “locomotor activity (FIG. 2B)” value (VPA-exposed rats [2]; 2, 20 and 100 mg/kg in males) was “normalize”, the “repetitive behaviours (compulsive self-grooming) (FIG. 2A)” value (VPA-exposed rats [2]; 2 and 100 mg/kg in females) was “significantly normalize” and the “discrimination index (DI) (FIG. 17)” value (PCP-treated rats; 10 and 20 mg/kg, PCP rats) was “statistically significant increase in the DI”. For the same compound, the “time spent investigating two identical objects in Trial 1 (FIG. 16A)” value (PCP-treated rats; CBDV 2, 10 or 20 mg/kg i.p. 60 min prior to testing) was “no real preference”, the “discrimination between familiar and novel objects, Trial 2 (FIG. 16B)” value (PCP-treated rats; CBDV 10 and 20 mg/kg i.p., PCP treated rats) was “reverse the cognitive dysfunction” and the “latency to fall, rotarod (FIG. 12)” value (Ube3am-/p+ (AS) mice) was “reduced latency to fall”.
